Measurements reported in US7211594B2, “Indazole compounds and compositions thereof as JNK inhibitors and for the treatment of diseases associated therewith” (Signal Pharmaceuticals, LLC, priority 2000, dated 2007).

Row | SMILES | melting point
1 | Fc1ccc2[nH]nc(-c3ccccc3)c2c1 [Example 6, 5-Fluoro-3-phenyl-1H-indazole] | 124 to 125 °C
2 | COc1ccccc1-c1n[nH]c2ccccc12 [Example 3, 3-(2-Methoxyphenyl)-1H-indazole] | 99 °C
3 | O=[N+]([O-])c1ccc2[nH]nc(-c3ccccc3)c2c1 [Example 7, 5-Nitro-3-phenyl-1H-indazole] | 185 to 186 °C
4 | FC(F)(F)c1ccc2[nH]nc(-c3ccccc3)c2c1 [Example 5, 3-Phenyl-5-trifluoromethyl-1H-indazole] | 152 °C
5 | COc1ccc(-c2n[nH]c3ccc(N)cc23)cc1OC.O=C(O)C(F)(F)F | 150 °C (dec.)
6 | O=[N+]([O-])c1cccc(-c2n[nH]c3ccc([N+](=O)[O-])cc23)c1 | 249 to 251 °C
7 | COc1ccc(-c2n[nH]c3ccc([N+](=O)[O-])cc23)cc1OC [Example 23, 3-(3,4-Dimethoxyphenyl)-5-nitro-1H-indazole] | 172 to 173 °C
8 | Fc1ccc(-c2n[nH]c3ccccc23)cc1 [Example 4, 3-(4-Fluorophenyl)-1H-indazole] | 126 °C

Further lines, results first:

Row | melting point | SMILES
9 | 104 °C | Nc1ccc2[nH]nc(-c3ccccc3)c2c1 [Example 8, 5-Amino-3-phenyl-1H-indazole]
10 | 240 °C (dec.) | COc1ccc(-c2n[nH]c3ccc(N)cc23)cc1.Cl [Example 34, 5-Amino-3-(4-methoxyphenyl)-1H-indazole Hydrochloride]
11 | 153 °C | COc1ccc(-c2n[nH]c3ccc([N+](=O)[O-])cc23)cc1 [Example 21, 3-(4-Methoxyphenyl)-5-nitro-1H-indazole]
